Read-outs that look alike come from different tables or passages of the source.
Tests used:
Type in all cases: cell-based
OR2W1 = target: T1, OR2W1 (Homo sapiens, UniProt Q9Y3N9); test: Luciferase reporter assay: suppression of the skatole response of OR2W1 expressed in HEK293 cells; conditions: for inhibition at 100 µM: read-out: Inhibition rate 2W1
T1 construct: expressed in transfected cells; host or cells: HEK293
T1 sequence (Q9Y3N9 1-320): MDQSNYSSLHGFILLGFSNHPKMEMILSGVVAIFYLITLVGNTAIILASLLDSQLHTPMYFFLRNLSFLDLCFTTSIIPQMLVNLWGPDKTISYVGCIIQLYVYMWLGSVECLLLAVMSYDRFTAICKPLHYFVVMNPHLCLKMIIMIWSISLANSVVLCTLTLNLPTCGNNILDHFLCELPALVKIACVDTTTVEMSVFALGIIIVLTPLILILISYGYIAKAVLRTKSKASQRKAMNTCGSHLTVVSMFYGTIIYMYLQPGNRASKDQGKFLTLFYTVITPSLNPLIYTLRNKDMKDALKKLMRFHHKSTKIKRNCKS
Description: (§1) A reaction solution having a composition shown in Table 1 was prepared on a clean bench, and left to stand for 15 minutes. The solution was dispensed to each well of a 96-well plate (BD). Subsequently, HEK293 cells (100 μL, 3×10^5 cells/cm^2) were seeded in each well and cultured for 24 hours in an incubator at 37° C. and under 5% CO2 conditions.
(§2) The olfactory receptor expressed in HEK293 cells activates adenylate cyclase with the aid of Gαs present in cells, to thereby increase intracellular cAMP level. In this study, odorant response was measured by a luciferase reporter gene assay which monitored the intracellular cAMP level as the luminescence value derived from a firefly luciferase gene (fluc2P-CRE-hygro). Also, a Renilla luciferase gene fused downstream of a CMV promoter (hRluc-CMV) was also transfected to HEK293 cells as an internal standard to correct errors in gene transfer efficiency and number of cells.
(§3) Cell culturing was performed for four hours in a CO2-incubator, whereby the luciferase gene sufficiently expressed in the cells. Luciferase activity was measured by means of a Dual-Glo™ luciferase assay system (promega) according to an instruction manual thereof. The luminescence value derived from firefly luciferase induced by odorant stimulation was divided by the luminescence value of cells which were not stimulated with odorants. The thus-obtained—called “fold increase”—was employed as an index for response intensity.
(§4) The response inhibition rate of a test substance was calculated as follows. Firstly, luminescence value derived from firefly luciferase induced by stimulation with skatole (X), and luminescence value in cells which expressed the same receptor but were not stimulated with skatole (Y) were determined. By subtracting Y from X, the receptor activity by stimulation with skatole alone (X−Y) was determined. Similarly, the luminescence value induced by stimulation with a mixture of skatole and a test substance (Z) was determined. Through subtracting Y (the luminescence value in cells which expressed the same receptor but were not stimulated with skatole) from Z, the receptor activity (Z−Y) by stimulation with a mixture of skatole and the test substance was obtained. From the thus-obtained receptor activity by stimulation with skatole alone (X−Y) and the receptor activity in the presence of a test material (Z−Y), the response inhibition rate of the test substance was calculated by the following equation: Inhibition rate (%)={1−(Z−Y)/(X−Y)}×100.
(§5) In each case, multiple independent experiments were performed in duplicate, and the average of each experiment was used.

OR5K1 = target: T2, OR5K1 (Homo sapiens, UniProt Q8NHB7); test: Luciferase reporter assay: suppression of the skatole response of OR5K1 expressed in HEK293 cells; conditions: for inhibition at 100 µM: read-out: Inhibition rate 5K1
T2 construct: expressed in transfected cells; host or cells: HEK293
T2 sequence (Q8NHB7 1-308): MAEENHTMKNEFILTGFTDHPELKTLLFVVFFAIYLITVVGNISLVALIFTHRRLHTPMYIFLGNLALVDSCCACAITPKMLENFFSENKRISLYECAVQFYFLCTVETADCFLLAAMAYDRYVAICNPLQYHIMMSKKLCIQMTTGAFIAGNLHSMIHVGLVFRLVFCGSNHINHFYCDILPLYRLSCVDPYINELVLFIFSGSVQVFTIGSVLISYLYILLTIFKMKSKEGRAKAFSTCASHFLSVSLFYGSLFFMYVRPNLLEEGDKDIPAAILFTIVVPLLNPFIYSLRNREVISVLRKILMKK
Description: as §1, §2, §3, §4, §5

OR5P3 = target: T3, OR5P3 (Homo sapiens, UniProt Q8WZ94); test: Luciferase reporter assay: suppression of the skatole response of OR5P3 expressed in HEK293 cells; conditions: test substance 100 μM mixed with 300 μM skatole, HEK293 cells expressing OR5P3
T3 construct: expressed in transfected cells; host or cells: HEK293
T3 sequence (Q8WZ94 1-311): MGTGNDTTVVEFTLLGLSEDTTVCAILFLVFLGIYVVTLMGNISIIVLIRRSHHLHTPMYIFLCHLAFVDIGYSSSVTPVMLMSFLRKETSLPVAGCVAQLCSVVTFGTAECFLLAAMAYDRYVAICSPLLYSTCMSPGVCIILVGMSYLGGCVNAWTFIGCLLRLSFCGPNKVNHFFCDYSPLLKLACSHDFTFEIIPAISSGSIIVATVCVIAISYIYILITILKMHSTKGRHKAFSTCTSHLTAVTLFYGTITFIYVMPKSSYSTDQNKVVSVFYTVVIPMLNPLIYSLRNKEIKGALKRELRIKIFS
Description: as §1, §2, §3, §4, §5

OR8H1 = target: T4, OR8H1 (Homo sapiens, UniProt Q8NGG4); test: Luciferase reporter assay: suppression of the skatole response of OR8H1 expressed in HEK293 cells; conditions: for inhibition at 100 µM: read-out: Inhibition rate 8H1
T4 construct: expressed in transfected cells; host or cells: HEK293
T4 sequence (Q8NGG4 1-311): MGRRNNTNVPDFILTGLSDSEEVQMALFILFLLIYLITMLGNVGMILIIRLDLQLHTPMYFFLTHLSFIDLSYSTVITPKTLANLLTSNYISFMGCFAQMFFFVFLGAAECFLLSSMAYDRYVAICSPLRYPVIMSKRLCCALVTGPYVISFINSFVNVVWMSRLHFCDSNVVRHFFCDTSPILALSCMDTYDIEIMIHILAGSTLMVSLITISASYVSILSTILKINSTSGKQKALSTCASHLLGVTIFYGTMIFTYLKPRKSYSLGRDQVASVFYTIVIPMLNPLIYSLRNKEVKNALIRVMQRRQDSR
Description: as §1, §2, §3, §4, §5

[1] = 4 h, test substance 100 μM mixed with 300 μM skatole, HEK293 cells expressing OR2W1
[2] = 4 h, test substance 100 μM mixed with 300 μM skatole, HEK293 cells expressing OR5K1
[3] = 4 h, test substance 100 μM mixed with 300 μM skatole, HEK293 cells expressing OR8H1

Row | inhibition at 100 µM (OR2W1; [1]) | inhibition at 100 µM (OR5K1; [2]) | Inhibition rate 5P3 (OR5P3) | inhibition at 100 µM (OR8H1; [3]) | Structure (SMILES) | inhibition at 100 µM (OR2W1; HEK293, 4 h) | inhibition at 100 µM (OR5K1; HEK293, 4 h) | inhibition at 100 µM (OR8H1; HEK293, 4 h) | Inhibition rate 2W1 (OR2W1; test substance 100 μM mixed with 300 μM skatole, HEK293 cells expressing OR2W1) | Inhibition rate 5K1 (OR5K1; test substance 100 μM mixed with 300 μM skatole, HEK293 cells expressing OR5K1) | Inhibition rate 8H1 (OR8H1; test substance 100 μM mixed with 300 μM skatole, HEK293 cells expressing OR8H1)
1 | 20 to 50% | 20 to 50% | C (C >20%) | < 20% | CC(C=O)C1CCCCC1 (stereo not drawn) [Pollenal II, 2-Cyclohexylpropanal] | – | – | – | – | – | –
2 | < 20% | 20 to 50% | A (A >80%) | 50 to 80% | CC(CO)CC(C)c1ccccc1 (stereo not drawn) [Pumple fleur, 2-Methyl-4-phenylpentanol] | – | – | – | – | – | –
3 | > 80% | > 80% | A (A >80%) | > 80% | CC(=O)C1=C(C)C2CC3(C1)C(C)CCC3C2(C)C (stereo not drawn) [acetylcedrene, 1-(2,3,4,7,8,8a-Hexahydro-3,6,8,8-tetramethyl-1H-3a,7-methanoazulen-5-yl)-ethanone] | – | – | – | – | – | –
4 | 50 to 80% | < 20% | C (C >20%) | 20 to 50% | CC/C=C\CC1=C(C)CCC1=O [cis-jasmone, (Z)-2-(2-Pentenyl)-3-methyl-2-cyclopenten-1-one] | – | – | – | – | – | –
5 | 20 to 50% | 20 to 50% | C (C >20%) | < 20% | CC(C)=CCCC(C)CC=O (stereo not drawn) [citronellal, 3,7-Dimethyl-6-octenal] | – | – | – | – | – | –
6 | 20 to 50% | < 20% | C (C >20%) | 20 to 50% | CC12CCC(C1)C(C)(C)C2O (stereo not drawn) [fenchyl alcohol, 1,3,3-trimethyl-bicyclo[2.2.1]heptan-2-ol] | – | – | – | – | – | –
7 | < 20% | 20 to 50% | B (B >50%) | 50 to 80% | CC(C)=CCC/C(C)=C/CO [geraniol, 2-trans-3,7-Dimethyl-2,6-octadien-1-ol] | – | – | – | – | – | –
8 | > 80% | < 20% | C (C >20%) | < 20% | O=C1CCCCCCC=CCCCCCCC1 [globanone, 8-Cyclohexadecen-1-one] | – | – | – | – | – | –
9 | 20 to 50% | < 20% | B (B >50%) | 20 to 50% | CC(CC=O)CCCC(C)(C)O (stereo not drawn) [hydroxycitronellal, 7-Hydroxy-3,7-dimethyl-octanal] | – | – | – | – | – | –
10 | 20 to 50% | 50 to 80% | C (C >20%) | 20 to 50% | COC(C)(C)CCCC(C)CC=O (stereo not drawn) [methoxycitronellal, 7-Methoxy-3,7-dimethyl-octanal] | – | – | – | – | – | –
11 | > 80% | < 20% | A (A >80%) | < 20% | C=CC(C)(O)CCC=C(C)CCC=C(C)C (stereo not drawn) [nerolidol, 3,7,11-Trimethyl-1,6,10-dodecatrien-3-ol] | – | – | – | – | – | –
12 | < 20% | > 80% | A (A >80%) | > 80% | CC(C)(C)C1CCC(O)CC1 (stereo not drawn) [p-tert-butlcyclohexanol, 4-(1,1-Dimethylethyl)-cyclohexanol] | – | – | – | – | – | –
13 | 50 to 80% | 50 to 80% | B (B >50%) | > 80% | O=C1CCCCCCCCCCCCCCO1 [pentalide, Oxacyclohexadecan-2-one] | – | – | – | – | – | –
14 | < 20% | < 20% | A (A >80%) | < 20% | CC(CCO)CCc1ccccc1 (stereo not drawn) [phenylhexanol, 3-Methyl-5-phenyl-1-pentanol] | – | – | – | – | – | –
15 | 20 to 50% | 50 to 80% | B (B >50%) | > 80% | CC(C)CCCC(C)CCO (stereo not drawn) [tetrahydrogenol, 3,7-Dimethyl-1-octanol] | – | – | – | – | – | –
16 | 20 to 50% | > 80% | A (A >80%) | 20 to 50% | Cc1ccc(C(C)C)c(O)c1 [thymol, 5-Methyl-2-(1-methylethyl)-phenol] | – | – | – | – | – | –
17 | 50 to 80% | 50 to 80% | C (C >20%) | 50 to 80% | C=C1CCCC(C)(C)C1C=CC(=O)CC (stereo not drawn) [γ-methylionone, 1-(2,2-Dimethyl-6-methylencyclohexyl)-1-penten-3-one] | – | – | – | – | – | –
18 | 20 to 50% | 20 to 50% | C (C >20%) | 20 to 50% | CC=CC(=O)C1C(C)C=CCC1(C)C (stereo not drawn) [δ-damascones, 1-(2,6,6-Trimethyl-3-cyclohexenyl)-2-buten-1-one] | – | – | – | – | – | –

Row | Structure (SMILES) | inhibition at 100 µM (OR2W1; [1]) | inhibition at 100 µM (OR5K1; [2]) | Inhibition rate 5P3 (OR5P3) | inhibition at 100 µM (OR8H1; [3]) | inhibition at 100 µM (OR2W1; HEK293, 4 h) | inhibition at 100 µM (OR5K1; HEK293, 4 h) | inhibition at 100 µM (OR8H1; HEK293, 4 h) | Inhibition rate 2W1 (OR2W1; test substance 100 μM mixed with 300 μM skatole, HEK293 cells expressing OR2W1) | Inhibition rate 5K1 (OR5K1; test substance 100 μM mixed with 300 μM skatole, HEK293 cells expressing OR5K1) | Inhibition rate 8H1 (OR8H1; test substance 100 μM mixed with 300 μM skatole, HEK293 cells expressing OR8H1)
19 | O=C1CCCCCCC/C=C\CCCCCCC1 [civetone, (Z)-Cycloheptadeca-9-en-1-one] | – | – | B (B >50%) | – | > 80% | 50 to 80% | 50 to 80% | – | – | –
20 | CC(C=O)Cc1ccc(C(C)(C)C)cc1 (stereo not drawn) [lilial, p-tert-Butyl-α-methyl hydrocinnamic aldehyde] | – | – | C (C >20%) | – | – | – | – | C (C >20%) | C (C >20%) | C (C >20%)
21 | CCCCCCCC1CCC(=O)O1 (stereo not drawn) [γ-undecalactone, 5-Heptyl dihydro-2(3H)-furanone] | 50 to 80% | 50 to 80% | B (B >50%) | 50 to 80% | – | – | – | – | – | –

Source: US9249453B2, “Method for identifying a malodor inhibitor” (Kao Corporation, priority 2011, dated 2016)
